Results taken from the NIST ThermoML archive (doi:10.1021/je034102r).
± gives the expanded uncertainty stated by the source.

Test: molar heat capacity at saturation pressure
Conditions: Small (less than 1 g) adiabatic calorimetry

CCCCn1cc[n+](C)c1.F[P-](F)(F)(F)(F)F [1-butyl-3-methylimidazolium hexafluorophosphate]
molar heat capacity [J/K/mol]
Conditions	Crystal	Liquid
205.82 K	267.4 ± 1.4	–
207.37 K	–	360.1 ± 1.8
208.72 K	270.5 ± 1.4	–
210 K	272.2 ± 1.3	361.4 ± 1.7
210.22 K	–	361.4 ± 1.8
211.76 K	274.3 ± 1.4	–
213.13 K	–	363.4 ± 1.8
214.78 K	277.7 ± 1.4	–
217.77 K	280.9 ± 1.5	–
220 K	283.4 ± 1.3	366.1 ± 1.7
220.73 K	284.4 ± 1.5	–
223.67 K	287.4 ± 1.5	–
226.59 K	290.7 ± 1.5	–
229.55 K	293.6 ± 1.5	–
230 K	294.2 ± 1.4	370.9 ± 1.7
232.58 K	297.2 ± 1.6	–
235.59 K	300.4 ± 1.6	–
238.56 K	303.6 ± 1.6	–
238.61 K	–	375.5 ± 1.9
240 K	305.2 ± 1.4	376 ± 1.7
240.98 K	–	376.4 ± 1.9
241.58 K	307.1 ± 1.6	–
243.49 K	–	377.7 ± 1.9
244.65 K	310.8 ± 1.6	–
246 K	–	379.1 ± 1.9
247.69 K	313.5 ± 1.7	–
248.49 K	–	379.9 ± 1.9
250 K	316.7 ± 1.5	381.1 ± 1.7
250.71 K	316.9 ± 1.7	–
250.97 K	–	381.9 ± 2
253.43 K	–	382.8 ± 2
253.7 K	320.9 ± 1.7	–
256.03 K	–	384.1 ± 2
256.67 K	323.9 ± 1.7	–
258.86 K	–	386 ± 2
259.68 K	327.4 ± 1.7	–
260 K	328.2 ± 1.5	386.5 ± 1.7
261.82 K	–	387.4 ± 2
262.73 K	331.8 ± 1.7	–
264.77 K	–	388.5 ± 2
265.76 K	335.3 ± 1.7	–
267.7 K	–	390.6 ± 2
268.75 K	342 ± 1.7	–
270 K	339.6 ± 1.6	392.1 ± 1.7
270.75 K	–	392.9 ± 2
273.92 K	–	394.4 ± 2
277.07 K	–	396.2 ± 2
279.27 K	–	397.3 ± 2
280 K	351 ± 1.6	397.8 ± 1.8
280.22 K	–	397.8 ± 2
282.28 K	–	399.3 ± 2.1
283.51 K	355.1 ± 1.6	399.8 ± 1.8
285.27 K	–	401.1 ± 2.1
288.25 K	–	402.9 ± 2.1
290 K	–	403.8 ± 1.8
290.53 K	–	404.3 ± 2.1
291.29 K	–	404.5 ± 2.1
293.21 K	–	406.2 ± 2.1
294.38 K	–	406.7 ± 2.1
296.25 K	–	407.3 ± 2.1
297.45 K	–	409 ± 2.1
298.15 K	–	408.7 ± 1.8
299.28 K	–	409.7 ± 2.1
300 K	–	409.8 ± 1.8
300.51 K	–	409.8 ± 2.1
302.31 K	–	411.6 ± 2.1
303.56 K	–	411.8 ± 2.1
305.32 K	–	412.9 ± 2.1
306.66 K	–	414 ± 2.1
308.31 K	–	414.6 ± 2.1
309.81 K	–	416 ± 2.2
310 K	–	415.9 ± 1.8
311.31 K	–	416.3 ± 2.2
320 K	–	422.3 ± 5
340 K	–	434.7 ± 8.7
360 K	–	446.2 ± 8.9
380 K	–	457 ± 9.1
400 K	–	466.9 ± 9.3
420 K	–	476 ± 9.6
440 K	–	484.3 ± 9.7
460 K	–	491.8 ± 9.8
480 K	–	498.5 ± 10
500 K	–	504.4 ± 10
520 K	–	509.5 ± 10
540 K	–	513.8 ± 10
550 K	–	515.6 ± 10
